# Source: ChEMBL document CHEMBL1201862, “PubChem BioAssay data set” (2004)
# The source made the active and inactive calls.
# Experiments:
# Beta-galactosidase = Beta-galactosidase (Escherichia coli, UniProt Q8VNN2); assay: beta-galactosidase enzyme inhibitors and activators, dose response, artefact control for CCR6 antagonist project, biochemical, E. coli enzyme, set 3 (AID 504712); format: functional
# HEK293 [1] = assay: NOD2 signaling inhibitors in MDP-stimulated cells, cell-based, uHTS, luminescence (AID 2001); format: functional; settings: Homo sapiens
# HEK293 [2] = assay: NOD1 signaling inhibitors, primary screen, cell-based, luminescence, uHTS (AID 1578); format: functional; settings: Homo sapiens
# HEK293 [3] = assay: cells; format: functional, cell-based; settings: Homo sapiens
# [4] = NIH:OVCAR-3 ovarian cancer cell cytotoxicity, dose response, PAX8 inhibitor project, plate reader, dry powder samples (AID 743044); format: functional, cell-based
# [5] = IGROV1 ovarian cancer cell cytotoxicity, dose response, PAX8 inhibitor project, plate reader, dry powder samples (AID 743043); format: functional, cell-based; settings: IGROV-1
# [6] = cytotoxicity in OV-90 ovarian cancer cells, dose response, PAX8 inhibitor project, cell-based, plate reader, dry powder, SA8 (AID 743149); format: functional
# HEK293 [7] = assay: cells; format: functional, cell-based; settings: Homo sapiens; remark: listed apart in the source
# [8] = Fluorescence-based cell-based high throughput dose response assay for inhibitors of the interaction of nucleotide-binding oligomerization domain containing 2 (NOD2) and the receptor-interacting serine-threonine kinase 2 (RIPK2).; format: functional; settings: Homo sapiens
# Paired box protein Pax-8 = Paired box protein Pax-8 (Homo sapiens, UniProt Q06710); assay: inhibitors of PAX8-driven TPO luciferase reporter, dose response, RMG-I cells, cherry-pick (AID 687027); format: functional, cell-based;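 also: luciferase reporter driven by Pax8 target thyroperoxidase promoter measured by SteadyGlo luminescence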
# Chain of Paired box protein Pax-8 (Q06710 whole entry, the tested form may be a part): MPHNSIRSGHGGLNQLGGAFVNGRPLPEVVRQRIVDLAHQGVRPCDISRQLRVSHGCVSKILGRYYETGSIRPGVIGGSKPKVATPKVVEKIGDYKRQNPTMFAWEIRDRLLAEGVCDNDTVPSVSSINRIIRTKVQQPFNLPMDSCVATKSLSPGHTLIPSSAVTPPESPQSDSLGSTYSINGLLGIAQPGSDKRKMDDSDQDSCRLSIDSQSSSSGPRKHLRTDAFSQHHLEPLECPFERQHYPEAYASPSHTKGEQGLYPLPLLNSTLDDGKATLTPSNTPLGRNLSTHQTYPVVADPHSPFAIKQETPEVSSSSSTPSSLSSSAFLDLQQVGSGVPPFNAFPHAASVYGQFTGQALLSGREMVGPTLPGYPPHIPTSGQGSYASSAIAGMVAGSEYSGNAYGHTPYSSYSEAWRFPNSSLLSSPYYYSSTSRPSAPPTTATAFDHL
# [9] = target: Nucleotide-binding oligomerization domain-containing protein 2 (Homo sapiens, UniProt Q9HC29); assay: NOD2 signaling inhibitors, cell-based, luminescence, uHTS, HEK293 (AID 1566); format: functional
# Chain of Nucleotide-binding oligomerization domain-containing protein 2 (Q9HC29 whole entry, the tested form may be a part): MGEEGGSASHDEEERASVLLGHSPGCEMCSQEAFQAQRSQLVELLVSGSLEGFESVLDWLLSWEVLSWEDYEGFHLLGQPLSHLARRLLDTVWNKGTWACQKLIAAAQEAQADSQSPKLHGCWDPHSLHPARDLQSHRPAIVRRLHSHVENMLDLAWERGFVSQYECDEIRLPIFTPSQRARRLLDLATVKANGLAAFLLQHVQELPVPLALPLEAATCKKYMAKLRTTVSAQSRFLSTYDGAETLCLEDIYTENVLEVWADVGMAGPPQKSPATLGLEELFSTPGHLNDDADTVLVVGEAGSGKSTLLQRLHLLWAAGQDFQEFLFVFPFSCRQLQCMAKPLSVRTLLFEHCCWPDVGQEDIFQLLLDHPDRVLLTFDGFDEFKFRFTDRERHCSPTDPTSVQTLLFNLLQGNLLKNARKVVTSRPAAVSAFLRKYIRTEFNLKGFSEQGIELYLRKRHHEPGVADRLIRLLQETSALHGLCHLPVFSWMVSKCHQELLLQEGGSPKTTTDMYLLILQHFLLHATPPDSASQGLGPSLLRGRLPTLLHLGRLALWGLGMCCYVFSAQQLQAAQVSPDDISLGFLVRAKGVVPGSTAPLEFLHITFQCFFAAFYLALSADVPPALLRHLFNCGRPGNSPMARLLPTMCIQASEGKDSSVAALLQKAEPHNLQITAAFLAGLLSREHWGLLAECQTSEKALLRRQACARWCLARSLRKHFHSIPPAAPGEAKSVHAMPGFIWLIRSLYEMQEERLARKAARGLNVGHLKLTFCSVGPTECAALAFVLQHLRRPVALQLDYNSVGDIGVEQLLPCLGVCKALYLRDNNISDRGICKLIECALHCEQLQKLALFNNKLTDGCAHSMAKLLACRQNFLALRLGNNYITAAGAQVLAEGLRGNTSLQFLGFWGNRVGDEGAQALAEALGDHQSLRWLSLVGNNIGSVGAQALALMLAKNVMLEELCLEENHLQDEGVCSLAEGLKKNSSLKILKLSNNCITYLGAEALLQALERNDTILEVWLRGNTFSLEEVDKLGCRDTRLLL
# Beta Lactamase = Beta Lactamase (Pseudomonas aeruginosa, UniProt Q932Y6); assay: beta-lactamase reporter inhibitor potency, dose response, artefact control for NOD2-RIPK2 interaction inhibitor project, BLA reporter cells, FRET fluorescence (AID 651552); format: functional, cell-based
# Chain of Beta Lactamase (Q932Y6 whole entry): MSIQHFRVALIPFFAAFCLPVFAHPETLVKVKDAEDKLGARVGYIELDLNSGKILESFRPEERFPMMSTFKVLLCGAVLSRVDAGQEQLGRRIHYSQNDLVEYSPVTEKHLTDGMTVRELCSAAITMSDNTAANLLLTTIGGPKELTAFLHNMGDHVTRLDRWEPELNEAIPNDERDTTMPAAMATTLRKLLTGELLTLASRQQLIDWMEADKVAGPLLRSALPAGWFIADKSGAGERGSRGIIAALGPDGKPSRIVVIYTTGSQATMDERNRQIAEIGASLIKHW
# [10] = cytotoxicity in COV362 ovarian cancer cells, dose response, cytotoxicity control for PAX8 inhibitor project, cell-based, plate reader, dry powder, SA12 (AID 743144); format: functional
# [11] = cytotoxicity in OVCAR4 cells, dose response, cytotoxicity control for PAX8 inhibitor project, cell-based, plate reader, dry powder, SA11 (AID 743150); format: functional; settings: OVCAR-4
# [12] = cytotoxicity in COV434 cells, dose response, cytotoxicity control for PAX8 inhibitor project, cell-based, plate reader, dry powder, SA7 (AID 743145); format: functional
# [13] = cytotoxicity dependent on PAX8, dose response, cell-based, plate reader, dry powder (AID 743049); format: functional
# HEK293 [14] = assay: cells; format: functional, cell-based; settings: Homo sapiens; remark: listed apart in the source
# [15] = target: T1, Sentrin-specific protease 8 (Homo sapiens, UniProt Q96LD8); format: functional
# T1 sequence (Q96LD8 whole entry): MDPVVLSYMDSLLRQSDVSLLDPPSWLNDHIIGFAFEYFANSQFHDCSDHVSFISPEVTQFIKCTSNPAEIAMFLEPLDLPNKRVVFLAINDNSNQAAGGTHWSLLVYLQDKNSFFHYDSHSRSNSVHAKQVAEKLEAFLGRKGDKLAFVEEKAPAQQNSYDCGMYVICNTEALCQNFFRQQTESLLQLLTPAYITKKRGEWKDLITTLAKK
# [16] = ARNT/TACC3 interaction disruptors, potency, confirmation, biochemical, AlphaScreen, cherry-picked samples (AID 651703); format: functional, Homo sapiens;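 also: His-tagged ARNT PAS-B domain paired with GST-TACC3 E629A dimer coactivator fragment; potency of inhibitors that break up the complex and lower AlphaScreen signal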
# [17] = target: T1, Sentrin-specific protease 8; format: functional; remark: listed apart in the source
# [18] = target: T2, Short transient receptor potential channel 4 (Mus musculus, UniProt Q9QUQ5); assay: mouse TRPC4 channel inhibitors, dose response, cell-based, HEK293 TRPC4/mu-opioid, Fluo-4 calcium (AID 434942); format: functional;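 also: potency of inhibitors blocking the TRPC4 calcium response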
# T2 sequence (Q9QUQ5 whole entry): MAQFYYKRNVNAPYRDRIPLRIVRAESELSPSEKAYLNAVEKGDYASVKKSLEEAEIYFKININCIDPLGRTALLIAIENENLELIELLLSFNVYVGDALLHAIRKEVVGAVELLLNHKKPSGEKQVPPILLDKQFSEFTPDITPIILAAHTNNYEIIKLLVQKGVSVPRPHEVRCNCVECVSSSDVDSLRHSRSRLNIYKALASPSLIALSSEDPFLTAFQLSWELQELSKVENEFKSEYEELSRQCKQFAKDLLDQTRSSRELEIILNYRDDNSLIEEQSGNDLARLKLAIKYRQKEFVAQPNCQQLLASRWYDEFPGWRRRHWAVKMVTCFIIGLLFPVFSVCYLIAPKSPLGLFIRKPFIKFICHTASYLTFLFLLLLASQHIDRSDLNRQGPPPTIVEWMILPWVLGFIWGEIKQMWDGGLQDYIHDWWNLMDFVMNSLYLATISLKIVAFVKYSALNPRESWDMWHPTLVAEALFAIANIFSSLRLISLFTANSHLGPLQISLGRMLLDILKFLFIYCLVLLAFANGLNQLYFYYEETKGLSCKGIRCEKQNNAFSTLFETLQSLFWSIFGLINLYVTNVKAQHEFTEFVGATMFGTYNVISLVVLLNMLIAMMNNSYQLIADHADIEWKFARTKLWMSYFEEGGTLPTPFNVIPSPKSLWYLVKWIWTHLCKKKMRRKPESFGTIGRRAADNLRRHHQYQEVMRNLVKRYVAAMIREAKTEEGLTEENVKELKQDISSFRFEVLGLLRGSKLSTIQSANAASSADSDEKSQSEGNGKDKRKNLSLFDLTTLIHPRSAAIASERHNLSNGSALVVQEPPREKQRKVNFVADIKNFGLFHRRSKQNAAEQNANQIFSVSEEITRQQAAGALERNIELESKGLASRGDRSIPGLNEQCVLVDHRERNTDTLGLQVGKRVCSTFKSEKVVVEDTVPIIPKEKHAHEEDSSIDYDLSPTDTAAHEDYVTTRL
# [19] = target: Arf-GAP with SH3 domain, ANK repeat and PH domain-containing protein 1 (Homo sapiens, UniProt Q9ULH1); format: functional;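 also: biochemical fluorescence polarization dose–response screen measuring inhibition of ASAP1; ASAP1 GAP domain stimulating GTP hydrolysis by truncated human ARF1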
# Chain of Arf-GAP with SH3 domain, ANK repeat and PH domain-containing protein 1 (Q9ULH1 whole entry, the tested form may be a part): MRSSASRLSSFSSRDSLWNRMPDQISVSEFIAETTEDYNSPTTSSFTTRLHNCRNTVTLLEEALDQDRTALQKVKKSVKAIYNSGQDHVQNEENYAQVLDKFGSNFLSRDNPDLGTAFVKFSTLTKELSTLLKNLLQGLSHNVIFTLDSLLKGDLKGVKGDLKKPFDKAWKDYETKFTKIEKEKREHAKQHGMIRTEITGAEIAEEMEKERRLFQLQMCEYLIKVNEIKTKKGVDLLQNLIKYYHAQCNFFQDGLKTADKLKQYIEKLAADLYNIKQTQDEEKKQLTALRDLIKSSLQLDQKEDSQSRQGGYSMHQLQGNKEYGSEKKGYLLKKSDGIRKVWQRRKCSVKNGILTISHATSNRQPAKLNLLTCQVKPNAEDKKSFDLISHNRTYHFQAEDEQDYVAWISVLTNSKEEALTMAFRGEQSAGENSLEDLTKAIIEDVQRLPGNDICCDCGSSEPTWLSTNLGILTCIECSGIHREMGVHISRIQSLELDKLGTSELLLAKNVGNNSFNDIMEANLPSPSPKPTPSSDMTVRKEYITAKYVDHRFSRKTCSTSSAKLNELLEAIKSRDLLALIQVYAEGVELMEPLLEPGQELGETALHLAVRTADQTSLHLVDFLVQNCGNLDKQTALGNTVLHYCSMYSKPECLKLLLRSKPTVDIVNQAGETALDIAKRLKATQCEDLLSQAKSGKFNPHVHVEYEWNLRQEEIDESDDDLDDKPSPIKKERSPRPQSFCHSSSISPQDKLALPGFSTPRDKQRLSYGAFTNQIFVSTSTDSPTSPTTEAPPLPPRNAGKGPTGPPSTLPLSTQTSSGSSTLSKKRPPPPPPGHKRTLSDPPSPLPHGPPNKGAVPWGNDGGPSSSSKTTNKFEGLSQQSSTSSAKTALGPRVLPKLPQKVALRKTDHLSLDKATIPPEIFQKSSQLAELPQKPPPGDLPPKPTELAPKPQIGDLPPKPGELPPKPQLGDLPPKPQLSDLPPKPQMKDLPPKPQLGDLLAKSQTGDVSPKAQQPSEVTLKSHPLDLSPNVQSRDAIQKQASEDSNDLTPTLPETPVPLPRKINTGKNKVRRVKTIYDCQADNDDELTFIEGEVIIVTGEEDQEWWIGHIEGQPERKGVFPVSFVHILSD
# [20] = target: ADP-ribosylation factor GTPase-activating protein 1 (Rattus norvegicus, UniProt Q62848); assay: Fluorescence polarization-based biochemical high throughput dose response screening assay to identify inhibitors of ADP-ribosylation factor GTPase activating protein 1 (ARFGAP1).; format: functional
# Chain of ADP-ribosylation factor GTPase-activating protein 1 (Q62848 whole entry): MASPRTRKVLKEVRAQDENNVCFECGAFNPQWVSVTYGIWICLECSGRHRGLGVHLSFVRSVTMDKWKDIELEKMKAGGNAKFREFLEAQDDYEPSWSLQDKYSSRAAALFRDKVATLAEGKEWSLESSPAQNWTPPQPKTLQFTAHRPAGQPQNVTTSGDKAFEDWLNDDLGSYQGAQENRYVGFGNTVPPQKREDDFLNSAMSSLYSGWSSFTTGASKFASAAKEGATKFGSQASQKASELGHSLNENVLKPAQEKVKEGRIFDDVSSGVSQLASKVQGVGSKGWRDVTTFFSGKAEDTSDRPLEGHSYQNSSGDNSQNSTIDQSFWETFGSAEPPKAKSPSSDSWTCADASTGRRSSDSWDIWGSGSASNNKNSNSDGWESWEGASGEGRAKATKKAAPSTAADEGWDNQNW
# [21] = AlphaScreen signal interference compounds, dose response, artefact control for ARNT-TACC3 interaction inhibitor project, biochemical, luminescence, cherry-pick (AID 651705); format: functional;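 also: AlphaScreen bead proximity signal that flags compounds interfering with the detection technology; potency reflects signal decrease which marks the compound as an assay artifact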
# Nonstructural protein 1 = Nonstructural protein 1 (Influenza A virus, UniProt Q194T2); format: functional, Influenza A virus (A/California/07/2009(H1N1))
# Chain of Nonstructural protein 1 (Q194T2 whole entry): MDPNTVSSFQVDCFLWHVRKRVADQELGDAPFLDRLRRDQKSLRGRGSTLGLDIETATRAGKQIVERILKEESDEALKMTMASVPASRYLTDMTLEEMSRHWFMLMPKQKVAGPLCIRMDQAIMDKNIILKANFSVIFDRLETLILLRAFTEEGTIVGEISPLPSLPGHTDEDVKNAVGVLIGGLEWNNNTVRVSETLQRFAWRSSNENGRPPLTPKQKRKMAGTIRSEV
# Chain of Beta-galactosidase (Q8VNN2 whole entry): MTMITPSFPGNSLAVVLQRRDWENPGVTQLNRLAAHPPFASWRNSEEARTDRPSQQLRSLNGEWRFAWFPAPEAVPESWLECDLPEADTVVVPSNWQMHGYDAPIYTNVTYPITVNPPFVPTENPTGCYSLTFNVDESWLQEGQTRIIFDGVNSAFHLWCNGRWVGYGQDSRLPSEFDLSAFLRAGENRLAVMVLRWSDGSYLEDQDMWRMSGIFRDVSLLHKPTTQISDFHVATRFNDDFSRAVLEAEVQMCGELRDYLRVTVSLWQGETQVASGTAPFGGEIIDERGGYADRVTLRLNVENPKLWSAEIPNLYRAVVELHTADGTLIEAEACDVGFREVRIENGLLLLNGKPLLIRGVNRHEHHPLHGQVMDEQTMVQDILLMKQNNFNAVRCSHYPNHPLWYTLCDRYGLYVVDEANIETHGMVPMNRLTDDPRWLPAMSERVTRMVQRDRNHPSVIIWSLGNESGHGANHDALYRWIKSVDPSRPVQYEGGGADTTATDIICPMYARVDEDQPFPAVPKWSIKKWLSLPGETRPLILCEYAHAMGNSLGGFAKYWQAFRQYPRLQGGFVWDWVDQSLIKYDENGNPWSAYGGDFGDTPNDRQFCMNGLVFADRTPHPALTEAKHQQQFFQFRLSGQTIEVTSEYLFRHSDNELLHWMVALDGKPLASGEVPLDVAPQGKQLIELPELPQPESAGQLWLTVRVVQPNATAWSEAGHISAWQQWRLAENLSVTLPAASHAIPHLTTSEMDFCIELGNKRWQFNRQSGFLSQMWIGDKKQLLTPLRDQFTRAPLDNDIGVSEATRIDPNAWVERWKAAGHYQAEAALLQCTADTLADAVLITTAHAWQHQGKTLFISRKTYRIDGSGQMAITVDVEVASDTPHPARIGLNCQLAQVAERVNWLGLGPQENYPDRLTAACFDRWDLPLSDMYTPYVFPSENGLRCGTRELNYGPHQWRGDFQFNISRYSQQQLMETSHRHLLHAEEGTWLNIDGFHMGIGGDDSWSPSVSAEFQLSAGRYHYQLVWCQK
smiles,measurement,setting,value
COc1cccc2sc(N(CCCN(C)C)C(=O)CCS(=O)(=O)c3ccccc3)nc12,IC50,Beta-galactosidase,> 66.6 µM (inactive)
same,IC50,HEK293 [1],6.06 µM (active)
same,EC50,HEK293 [2],8.24 µM (active)
same,IC50,HEK293 [3],> 20 µM (inactive)
same,AC50,[4],10 µM (active)
same,AC50,[5],28.7 µM (active)
same,AC50,[6],43.1 µM (active)
same,IC50,HEK293 [7],5.96 µM (active)
same,IC50,[8],4.68 µM (active)
same,AC50,Paired box protein Pax-8,7.04 µM (active)
same,EC50,[9],> 20 µM (inactive)
same,IC50,Beta Lactamase,17.2 µM (inactive)
same,AC50,[10],13.9 µM (active)
same,AC50,[11],22.1 µM (active)
same,AC50,[12],12.9 µM (active)
same,AC50,[13],8.54 µM (active)
same,IC50,HEK293 [14],> 20 µM (inactive)
Cc1ccoc1C(=O)NCCCNC(=O)c1occc1C,IC50,[15],8.27 µM (active)
same,AC50,[16],84.7 µM (active)
same,IC50,[17],12.7 µM (active)
COC(=O)CSc1nnc2n(-c3ccc(OC)cc3)c(=O)c3c4c(sc3n12)CCCCC4,EC50,[18],1.5 µM (active)
same,IC50,[19],28.2 µM (inactive)
same,IC50,[20],38.1 µM (inactive)
COc1cc([N+](=O)[O-])cc(/C=N/NC(=O)Cn2cncn2)c1O,AC50,[21],85 µM (active)
same,IC50,Nonstructural protein 1,10.1 µM (active)
